Measured values: US20040072825A1, “2-(2-(4-((2r)-2-methyl-3-(10h-phenothiazin-10-yl)propyl)-1-piperazinyl)-ethoxy) ethanol, process for the preparation thereof, pharmaceutical compositions containing said compound and therapeutic uses thereof” (priority 2000, published 2004)
“Also recorded” adds a separate entry of the source. Marks after values point to notes of the source that are not given here.

What was measured:
[1] = system: vomiting induced by cisplatin in ferrets; assay: Cisplatin-induced emesis in ferrets, single oral administration; format: in vivo, ferret; conditions: for Proportion of animal vomiting: 60 min before cisplatin i.v., 5 h observation
Method: Cisplatin-induced emesis in ferrets is largely considered as the most suitable animal model for the study of drug activity against chemotherapy-induced vomiting in man (Georges L. King. Animal models in the study of vomiting. Can. J. Physiol. Pharmacol. 68, 260-268, 1988).
Three compounds, dixyrazine dihydrochloride and its (R) and (S) enantiomers were tested for their activity against vomiting induced by cisplatin in ferrets following single oral administration.
The study involved 14 groups of 8 male ferrets weighing between 0.93 kg and 1.45 kg purchased from the company MARSHALL FARMS (NEW YORK, U.S.). Groups were defined as follows: […]
group 1: control group dosed with the vehicle of test substances (sterile water),
group 2: method-control group dosed with a method-control substance, granisetron ([…], RBI®), at a dose of 0.3 mg/kg,
group 3 to 6: group dosed with diyyrazine dihydrochloride at 4 increasing doses of 7.5, 15, 30 and 60 mg/kg,
group 7 to 10: group dosed with the (R) enantiomer of dixyrazine dihydrochloride at 4 increasing doses of 7.5, 15, 30 and 60 mg/kg,
group 11 to 14: group dosed with the (S) enantiomer of drazine dihydrochloride at 4 increasing doses of 7.5, 15, 30 and 60 mg/kg.
On the day prior to the test, animals were fasted and allowed access only to water.
On the morning of the day of the study, free access to food was allowed for 30 minutes. Subsequently, animals were again put on to a water-only fast for 30 minutes before administration of the three compounds, the vehicle or the method-control substance which were administrated orally in a volume of 5 ml/kg.
Cisplatin was administrated by the intravenous route at a dose of 115 mg/m^2 and in a volume of 115 ml/m^2 (i.e. approximately at 10 mg/kg), 60 minutes after treatment. […] Emesis was characterised by abdominal contractions, which were associated with expulsion or attempted expulsion of stomach contents.
The time to onset of emesis was noted. The number of episodes of vomiting and the number of abdominal retches associated with episodes of emesis were also noted.

D2 dopaminergic receptor = D2 dopaminergic receptor (Rattus norvegicus, UniProt P61169); assay: Radioligand binding, D2 receptor (rat striatum membranes)
Method: The test substances, biological materials and experimental protocols used in the study are described in Moguilevsky N. et al. (1994) Eur. J. […] List S. J. (1981) Proc. Natl. Acad. Sci.78:2620-2624; MacKenzie R. G. et al. (1994) Eur. J. Pharmacol. 266:79-85; Van Tol et al., (1992) Nature, 358:149-152. […] Filtermat A, Walac), then washed with cold buffer using a filtration unit ‘Cell Harvester’ (Brandel, Packard or Tomtec). The bound radioactivity is measured using a scintillation liquid (Formula 989 or Microscint 0, Packard) or solid (Meltilex B/HS, Wallac), and a scintillation counter (LS 6000, Beckman; Topcount, Packard; Betaplate, Wallac). […] Each experiment was performed in duplicate (n=2). In parallel, a positive control (concentration of reference substance causing 50% inhibition of radioligand specific binding) is tested to validate the assay. For competition experiments, membranes are incubated in the buffer containing the radioligand and increasing concentrations of unlabeled test substances. Each binding assay is validated with a reference compound tested in parallel. […] where BO and BI represent the total binding in the absence and presence of the unlabelled drug (in dpm/assay) and NSB is the amount of non specific binding (in dpm/assay). Analysis of raw data and pIC50 calculation is performed by computerized non-linear curve fitting methods using a set of equations describing competitive interactions between labelled and unlabeled ligands which obey the law of mass action. IC50 represents the concentration of the test substance inhibiting 50% of the specific binding of the radioligand. It is determined in competitive binding experiments by measuring the binding of a single concentration of a radioactive ligand at equilibrium with various concentrations of the unlabeled test substance. pIC50=−log IC50

[2] = highest dose of 60 mg/kg p.o., 60 mg/kg

D2 dopaminergic receptor, sequence (P61169 1-415 isoform P61169-2): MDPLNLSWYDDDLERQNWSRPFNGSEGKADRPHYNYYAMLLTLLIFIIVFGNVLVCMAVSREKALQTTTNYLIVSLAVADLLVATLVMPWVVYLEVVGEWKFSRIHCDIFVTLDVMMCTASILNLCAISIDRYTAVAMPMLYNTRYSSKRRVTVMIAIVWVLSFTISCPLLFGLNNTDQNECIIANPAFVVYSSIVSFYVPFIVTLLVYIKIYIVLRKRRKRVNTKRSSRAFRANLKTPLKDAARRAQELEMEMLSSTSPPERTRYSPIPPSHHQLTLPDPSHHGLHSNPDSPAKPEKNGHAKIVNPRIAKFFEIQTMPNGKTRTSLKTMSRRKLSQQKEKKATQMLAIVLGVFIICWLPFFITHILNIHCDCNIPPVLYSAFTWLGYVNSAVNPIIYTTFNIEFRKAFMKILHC

`CC(CN1CCN(CCOCCO)CC1)CN1c2ccccc2Sc2ccccc21` (racemic) [Dixyrazine, 2-(2-(4-(2-methyl-3-(10H-phenothiazin-10-yl)propyl)-1-piperazinyl)ethoxy)ethanol, reference compound] was tested, and the “Time to onset of emesis” value ([1]; 7.5 mg/kg p.o.) was 90 min, the “Proportion of animal vomiting” value ([1]; 7.5 mg/kg p.o.) was 8/8 and the “Time to onset of emesis” value ([1]; 15 mg/kg p.o.) was 76 min. For the same molecule, the “Proportion of animal vomiting” value ([1]; 15 mg/kg p.o.) was 5/8, the “Time to onset of emesis” value ([1]; 30 mg/kg p.o.) was 73 min and the “Proportion of animal vomiting” value ([1]; 30 mg/kg p.o.) was 7/8. The “Time to onset of emesis” value ([1]; 60 mg/kg p.o.) was 81 min, the “suppression of vomiting, number of animals” value ([1]; 60 mg/kg p.o.) was 5 animals out of 8 and the “Proportion of animal vomiting” value ([1]; 60 mg/kg p.o.) was 3/8*. The “antiemetic effect (in words)” value [1, 2] was “induced an antiemetic effect”, the “effect on time to onset of emesis (in words)” value [1, 2] was “no effect; also recorded: did not alter this variable” and the “antiemetic effect (in words)” value ([1]; highest dose of 60 mg/kg p.o., listed as dixyrazine dihydrochloride, 60 mg/kg) was “significantly reduce cisplatin-induced emesis”. For the same molecule, the “percent inhibition of control specific binding” value (D2 dopaminergic receptor; D2, 10 μM, mean of duplicate, 10 µM) was 94%, the inhibition at 10 µM (D2 dopaminergic receptor; D2, 10 μM, mean of duplicate, read-out: percent inhibition of control specific binding) was greater than 90% and the IC50 (D2 dopaminergic receptor; D2, competitive binding, read-out: Affinity pIC50 (-log IC50) (converted)) was 5.01 nM.
